Test results published in PMC8284440, “Toward New Transmission-Blocking Combination Therapies: Pharmacokinetics of 10-Amino-Artemisinins and 11-Aza-Artemisinin and Comparison with Dihydroartemisinin and Artemether” (Antimicrobial Agents and Chemotherapy, 2021).
Converted amounts (≈) assume the structure as drawn. Read-outs that look alike come from different tables or passages of the source.

Experiments:
[1] = Metabolic stability in rat liver microsomes; type: in vitro ADME; parameters: half-life / CLint scaled: dose or concentration left out as unconfirmed; conditions: for CLint scaled: calculated, read-out: Intrinsic liver clearance rate CLint Rat; for half-life: read-out: Microsomal half-life t1/2 Rat
Procedure: (ii) Metabolic stability in liver microsomes. The metabolic stability assay was performed in duplicate using 96-deepwell plates. Each compound (0.4 mM) was incubated individually in mouse, rat, and pooled human liver microsomes (0.4 mg/ml) at 37°C in the presence and absence of the cofactor NADPH (1 mM). An aliquot was taken at 0, 5, 10, 30, and 60 min, and the reaction was quenched by adding 300 μl of ice-cold acetonitrile containing the internal standard carbamazepine (0.0236 μg/ml) ([88]). The test compounds in the supernatant were analyzed by means of LC-MS/MS as described in “Sample analysis” below. The normalized data for each sample were used to calculate the in vitro half-life, intrinsic clearance rate, and hepatic extraction ratio from the results of this assay using the following equations ([88]).Equation 1. Normalized area. (1) Normalized area=(Peak area of sample at time point/Peak area of internal standard) Equation 2. Percent parent remaining. (2) % Parent=Normalized peak area of sample at time point/Normalized peak area of sample at t=0×100 Equation 3. Calculated t1/2. (3) t1/2=−0.693/λ where λ is the slope of the ln (% parent remaining) versus time curve of the compound.Equation 4. CLint. (4) CLint=[0.693/t1/2(min)]×[Volume of incubation (μl)/Microsomal protein (μg)] Equation 5. Hepatic extraction ratio. (5) EH=fu×CLint/QH + fu×CLint
(§1) Sample extraction. […] The organic layer was then transferred and evaporated under a gentle stream of nitrogen at room temperature for 30 min. The dried samples were reconstituted in mobile phase, and a 5 μl sample was injected for LC-MS/MS analysis. The only exception was the arylurea 10, for which no liquid-liquid extraction was conducted; instead, the 200 μl acetonitrile solution was evaporated under a gentle stream of nitrogen at room temperature. The dried sample was reconstituted in the mobile phase, and a 5 μl sample was injected for LC-MS/MS analysis. The plasma samples for each compound from the in vivo studies were extracted by mixing 350 μl ethyl acetate with 15 μl of plasma sample and 35 μl of universal buffer containing internal standard at pH 8. The samples were vortexed for 1 min and centrifuged for 5 min, and the organic layer was then transferred and evaporated under a gentle stream of nitrogen at room temperature for 30 min. The dried samples were each reconstituted in the mobile phase, and a 5 μl sample was injected for LC-MS/MS analysis.
(§2) LC-MS/MS analysis. For all the artemisinins except the arylurea 10, gradient chromatography was performed on a Phenomenex (Torrance, CA, USA) Luna PFP(2) analytical column (100 Å, 5 μm, 2 by 50 mm) and an AB Sciex API 5500 mass spectrometer which was operated at unit resolution in the multiple reaction monitoring (MRM) mode. The HPLC method used was a gradient method with 5 mM ammonium acetate and 0.1% acetic acid in water as the aqueous phase and a mixture of acetonitrile and methanol (1:1 vol/vol) containing 5% of the aqueous phase as the organic phase ([89]). The arylurea 10 was analyzed using a Phenomenex Gemini NX-C18 (5 μm, 2.1 mm by 50 mm) column with an AB Sciex 3200 QTRAP mass spectrometer operated at unit resolution in the MRM mode. The HPLC method used was a gradient method with 5 mM ammonium acetate and 0.1% acetic acid in water as the aqueous phase and a mixture of acetonitrile and methanol (1:1 vol/vol). The transitions of the molecular ions were monitored, as listed in Table S8 in the supporting information. The calibration range was between 0.002 μg/ml and 6.250 μg/ml. Data acquisition and evaluation were performed using Analyst 1.6.2 software (Applied Biosystems, Foster City, CA, USA). The formation of the putative metabolite DHA from the amino-artemisinins and the metabolite M1 of artemisone were evaluated in these mice PK studies; the MRM transitions of DHA and M1 (Table S8) were thus included in the LC-MS/MS assays.

Kinetic solubility = type: physicochemical
Procedure: For kinetic solubility assays, three solutions with differing pH were prepared. Phosphate-buffered saline (PBS) was prepared by mixing KH2PO4 (0.2 g), K2HPO4 (0.115 g), NaCl (0.8 g), and KCl (0.2 mg) in purified water (100 ml). The pH was measured and adjusted using 0.05 M HCl or 0.05 M NaOH to pH 7.4. The pH 2 solution was prepared by adding HCl (37%, 83 μl) to purified water (50 ml). FaSSIF buffer at pH 6.5 was prepared by adding KH2PO4 (2.042 g) and KCl (3.728 g) to purified water (450 ml) and adjusting the pH to 6.5 using 0.05 M HCl or 0.05 M NaOH as required. Simulated intestinal fluid (SIF) (Biorelevant, London, UK) powder (5.6 mg) was then added to the buffer (25 ml) to complete the process.
(i) Kinetic solubility. Duplicate stock solutions of each compound at a concentration of 10 mM in DMSO were prepared in a 96-well plate in PBS at pH 7.4, water at pH 2, and FaSSIF buffer at pH 6.5 to a final concentration of 200 μM ([68]). These three solutions mimic the pH and conditions of the gastrointestinal tract. As the FaSSIF buffer mimics the fasted state in vitro, solubility in this buffer provides a guide as to whether compounds should be dosed with or without meals ([87]). Calibration standards were prepared for each compound in DMSO at 11, 100, and 220 μM. These standards were used to produce a calibration curve required for calculation of the concentration of each compound in the test solutions. […] Plates were agitated on a plate shaker for 2 h (500 rpm, 22°C). Sample analysis was carried out by liquid chromatography-tandem mass spectrometry (LC-MS/MS) analysis as described in “Sample analysis” below. Peak areas were integrated, and calibration curves were constructed and used to calculate the concentrations of each compound in the three buffers.
as §1
as §2, with “μg/ml.” for “μg/ml. Data acquisition and evaluation were performed using Analyst 1.6.2 software (Applied Biosystems, Foster City, CA, USA). The formation of the putative metabolite DHA from the amino-artemisinins and the metabolite M1 of artemisone were evaluated in these mice PK studies; the MRM transitions of DHA and M1 (Table S8) were thus included in the LC-MS/MS assays.”

[2] = FaSSIF buffer, 22 °C, pH 6.5, fassif, kinetic from dmso stock, read-out: Solubility FaSSIF pH 6.5
[3] = PBS, 22 °C, pH 7.4, aqueous buffer, kinetic from dmso stock, read-out: Solubility pH 7.4
[4] = pH 2 solution (HCl in water), 22 °C, pH 2, kinetic from dmso stock, read-out: Solubility pH 2

Structure (SMILES) | Hepatic extraction ratio EH Rat [1] | CLint scaled [1] [L/h/kg] | half-life [1] [min] | solubility at 2 h (Kinetic solubility; [2]) [µM] | solubility at 2 h (Kinetic solubility; [3]) [µM] | solubility at 2 h (Kinetic solubility; pH 2, FaSSIF pH 6.5 and pH 7.4 together, read-out: Solubility in the three aqueous solutions) [µM] | solubility at 2 h (Kinetic solubility; [4]) [µM]
C[C@@H]1CC[C@H]2[C@@H](C)C(=O)N[C@@H]3O[C@@]4(C)CC[C@@H]1[C@]32OO4 [11-Aza-artemisinin 11, 11-aza-artemisinin] | 0.1 | 0.54 | > 150 | > 150 | 144 (≈ 40.6 µg/mL) | > 144 | > 150
CO[C@H]1O[C@@H]2O[C@@]3(C)CC[C@H]4[C@H](C)CC[C@@H]([C@H]1C)[C@@]24OO3 [Artemether 3, artemether] | 0.9 | 59.3 | < 10 |  |  |  | 
C[C@H]1[C@H](N2CCSCC2)O[C@@H]2O[C@@]3(C)CC[C@H]4[C@H](C)CC[C@@H]1[C@@]24OO3 [Artemiside 5, artemiside] | 1.0 | 83.4 | < 10 | < 5 | < 5 |  | 12.4 (≈ 4.58 µg/mL)
C[C@H]1[C@H](N2CCS(=O)(=O)CC2)O[C@@H]2O[C@@]3(C)CC[C@H]4[C@H](C)CC[C@@H]1[C@@]24OO3 [Artemisone 6, artemisone] | 0.9 | 20.6 | < 10 | 74.4 (≈ 29.9 µg/mL) | 120 (≈ 48.3 µg/mL) |  | 73.7 (≈ 29.6 µg/mL)
C[C@H]1[C@H](N2CCN(C(=O)Nc3ccc(F)cc3)CC2)O[C@@H]2O[C@@]3(C)CC[C@H]4[C@H](C)CC[C@@H]1[C@@]24OO3 [Arylurea 10] |  |  |  | 24 (≈ 11.8 µg/mL) | 27 (≈ 13.2 µg/mL) |  | 10 (≈ 4.9 µg/mL)
C[C@H]1[C@@H](O)O[C@@H]2O[C@@]3(C)CC[C@H]4[C@H](C)CC[C@@H]1[C@@]24OO3 [DHA 2, dihydroartemisinin] | 0.4 | 2.08 | 90 |  |  |  | 
C[C@H]1[C@H](N2C=CS(=O)(=O)CC2)O[C@@H]2O[C@@]3(C)CC[C@H]4[C@H](C)CC[C@@H]1[C@@]24OO3 [M1 12] | 0.7 | 6.51 | 28.8 | 57.6 (≈ 23 µg/mL) | 74.5 (≈ 29.8 µg/mL) |  | > 150
C[C@H]1[C@H](NS(N)(=O)=O)O[C@@H]2O[C@@]3(C)CC[C@H]4[C@H](C)CC[C@@H]1[C@@]24OO3 [Sulfamide 7] | 0.4 | 1.97 | 94.9 | < 5 | 11.5 (≈ 4.17 µg/mL) |  | > 150
